# Data reported in patent publication US20220370486A1, “COMBINATION TREATMENT OF SYSTEMIC FUNGAL INFECTIONS” (The Board of Trustees of the University of Illinois, priority 2019, published 2022).
# Read-outs that look alike come from different tables or passages of the source.
# How the values were obtained:
# [1] = Isothermal titration calorimetry (ITC) sterol binding
# Description: (§1) This key discovery opened a path to the rational development of a non-toxic AmB variant. To probe its predicted role in sterol binding, the hydroxyl group was synthetically deleted at the C2′ position on the mycosamine appendage.
# A practical 11-step synthesis of C2′epiAmB using a frontier site-selective acylation method was developed. Wilcock, B. C. et al., Nat Chem 2012, 4 (12), 996-1003; Uno, B. E. A synthesis enabled understanding of Amphotericin B leading to derivatives with improved therapeutic indices. University of Illinois at Urbana-Champaign, 2014. The sterol binding and cell killing activities was then determined.
# [2] = system: yeast cells; test: Antifungal activity after ergosterol pre-complexation of the sponge; type: cell-based; settings: sponge pre-complexed with ergosterol
# Description: Anderson, T. M. et al., Nat Chem Biol 2014, 10 (5), 400-6. […] Davis, S. A., et al., Nat Chem Biol 2015, 11 (7), 481-7. To test whether C2′epiAmB primarily kills cells via the same sterol sponge mechanism, the C2′epiAmB sponge was similarly pre-complexed with ergosterol. […] Thus, C2′epiAmB similarly kills yeast primarily via sterol binding, and, by extension, the new compounds targeted in this application are expected to have a similar barrier to fungal resistance that has been observed for the past 50+years with AmB.
# [3] = system: C. krusei ATCC 6258; test: Checkerboard broth microdilution (CLSI); type: cell-based; settings: isolate ATCC 6258
# Experimental: (§2) Isolates were tested against varying concentrations of amphotericin B and C2′epiAmB (range, 0.06 to 4 mg/L) and combined with fluconazole (range, 0.12 to 128 mg/L) or ketoconazole (range 0.008 to 8 mg/L) or voriconazole (range, 0.004 to 4 mg/L) using a checkerboard grid design following the Clinical and Laboratory Standards Institute (CLSI) broth microdilution method (M23Ed5).
# [4] = system: C. auris 1081160; test: Checkerboard broth microdilution (CLSI); type: cell-based; settings: isolate 1081160; for MIC: single agent
# Experimental: as §2
# [5] = system: C. tropicalis 1046709; test: Checkerboard broth microdilution (CLSI); type: cell-based; settings: isolate 1046709
# Experimental: as §2
# [6] = system: A. flavus SC 1085986; test: Checkerboard broth microdilution (CLSI); type: cell-based; settings: isolate 1085986
# Experimental: as §2
# [7] = system: C. parapsilosis 1048737; test: Checkerboard broth microdilution (CLSI); type: cell-based; settings: isolate 1048737; for MIC: single agent
# Experimental: as §2
# [8] = system: F. oxysporum SC 1087597; test: Checkerboard broth microdilution (CLSI); type: cell-based; settings: isolate 1087597
# Experimental: as §2
# [9] = system: F. solani SC 1047542; test: Checkerboard broth microdilution (CLSI); type: cell-based; settings: isolate 1047542
# Experimental: as §2
# [10] = system: C. parapsilosis ATCC 22019; test: Checkerboard broth microdilution (CLSI); type: cell-based; settings: isolate ATCC 22019
# Experimental: as §2
# [11] = UV-Vis and PCA based sterol sponge binding assay; settings: apparent KD, sterol sponge aggregates in vitro
# Description: However, an alternative method was developed for reproducible formation of homogenous AmB and C2′epiAmB sterol sponge aggregates in vitro. Using these preparations, a quantitative UV-Vis and Principle Component (PCA) based assay for determining the apparent Kis for the binding of AmB and C2′epiAmB to ergosterol and cholesterol (FIGS. 2A-2D) was developed.
# [12] = rat, in vivo
# [13] = system: 40 Aspergillus clinical isolates, including azole-resistant A. fumigatus, A. flavus, and A. terreus; test: Antifungal testing, Fungus Testing Laboratory UT-San Antonio; type: cell-based
# Description: (§3) In vitro antifungal activity of C2′ epiAmB was compared with that of AmB against an extensive series of Candida and Aspergillus clinical isolates (FIG. 6A) at Evotec (Oxfordshire, UK). […] C2′epiAmB was also sent to the US national Fungus Testing Laboratory at UT-San Antonio for antifungal testing against an extended panel of especially challenging 40 Aspergillus clinical isolates, including azole-resistant A. fumigatus, A. flavus, and A. terreus (FIG. 6B).
# [14] = system: human red blood cells; test: Toxicity to human red blood cells; type: cell-based
# Description: as §1
# In each case, C2′epiAmB is non-toxic to human red blood cells, primary hREC, mice, and rats up to the highest dose tested.
# [15] = Intravenous toxicity in mice; settings: up to the highest dose tested
# [16] = system: A. fumigatus ATC204305; test: In vitro antifungal activity (Evotec); type: cell-based; settings: strain ATC204305
# Description: as §3
# [17] = system: A. fumigatus AF293; test: In vitro antifungal activity (Evotec); type: cell-based; settings: strain AF293
# Description: as §3
# [18] = system: A. fumigatus AF91; test: In vitro antifungal activity (Evotec); type: cell-based; settings: strain AF91
# Description: as §3
# [19] = system: A. fumigatus A1163; test: In vitro antifungal activity (Evotec); type: cell-based; settings: strain A1163
# Description: as §3
# [20] = system: clinically relevant invasive molds; test: Activity against broader panel of invasive molds; type: cell-based; settings: many strains, including pan-azole resistant strain F14196
# Description: as §3
structure (smiles),measurement,setting,value
"C[C@@H]1[C@H](O)[C@@H](C)/C=C/C=C/C=C/C=C/C=C/C=C/C=C/[C@H](OC2O[C@H](C)[C@@H](O)[C@H](N)[C@H]2O)CC2O[C@](O)(C[C@@H](O)C[C@@H](O)[C@H](O)CC[C@@H](O)C[C@@H](O)CC(=O)O[C@H]1C)C[C@H](O)[C@H]2C(=O)O (stereo partly drawn) [C2′epiAmB, C2′epi amphotericin B]",binding of ergosterol by ITC,[1],bind ergosterol
same,binding of cholesterol by ITC,[1]; within the detection limits of ITC,not (detectably) cholesterol
same,change of potency upon ergosterol pre-complexation,[2],same reduction in potency
same,MIC,"[3]; Pichia kudriavzevii, ATCC6258, single agent, read-out: MIC",2 mg/L
same,MIC,[3]; single agent,1 mg/L
same,MIC when added 1 log2 unit lower of azoles' MIC,[3]; with fluconazole,2 mg/L
same,MIC when added 1 log2 unit lower of azoles' MIC,[3]; with ketoconazole,1 mg/L
same,MIC when added 1 log2 unit lower of azoles' MIC,[3]; with voriconazole,1 mg/L
same,MIC,"[4]; Candidozyma auris, read-out: MIC",2 mg/L
same,MIC,[4],4 mg/L
same,MIC when added 1 log2 unit lower of azoles' MIC,[4]; with fluconazole,0.06 mg/L
same,MIC when added 1 log2 unit lower of azoles' MIC,[4]; with ketoconazole,2 mg/L
same,MIC when added 1 log2 unit lower of azoles' MIC,[4]; with voriconazole,2 mg/L
same,MIC,"[5]; Candida tropicalis, single agent",1 mg/L
same,MIC when added 1 log2 unit lower of azoles' MIC,[5]; with fluconazole,1 mg/L
same,MIC when added 1 log2 unit lower of azoles' MIC,[5]; with ketoconazole,1 mg/L
same,MIC when added 1 log2 unit lower of azoles' MIC,[5]; with voriconazole,1 mg/L
same,MIC,"[6]; Aspergillus flavus, single agent",4 mg/L
same,MIC when added 1 log2 unit lower of azoles' MIC,[6]; with ketoconazole,>4 mg/L
same,MIC when added 1 log2 unit lower of azoles' MIC,[6]; with voriconazole,>4 mg/L
same,MIC,"[7]; Lodderomyces parapsilosis, read-out: MIC",1 mg/L
same,MIC,[7],2 mg/L
same,MIC when added 1 log2 unit lower of azoles' MIC,[7]; with fluconazole,1 mg/L
same,MIC when added 1 log2 unit lower of azoles' MIC,[7]; with ketoconazole,0.5 mg/L
same,MIC when added 1 log2 unit lower of azoles' MIC,[7]; with voriconazole,0.5 mg/L
same,MIC,"[8]; Fusarium oxysporum, single agent",> 4 mg/L
same,MIC when added 1 log2 unit lower of azoles' MIC,[8]; with ketoconazole,0.06 mg/L
same,MIC when added 1 log2 unit lower of azoles' MIC,[8]; with voriconazole,>4 mg/L
same,MIC,"[9]; Fusarium solani, single agent",> 4 mg/L
same,MIC when added 1 log2 unit lower of azoles' MIC,[9]; with ketoconazole,0.06 mg/L
same,MIC when added 1 log2 unit lower of azoles' MIC,[9]; with voriconazole,>4 mg/L
same,MIC,"[10]; Lodderomyces parapsilosis, ATCC22019, single agent, read-out: MIC",1 mg/L
same,MIC,[10]; single agent,2 mg/L
same,MIC when added 1 log2 unit lower of azoles' MIC,[10]; with fluconazole,1 mg/L
same,MIC when added 1 log2 unit lower of azoles' MIC,[10]; with ketoconazole,0.5 mg/L
same,MIC when added 1 log2 unit lower of azoles' MIC,[10]; with voriconazole,1 mg/L
same,Kd,"[11]; read-out: KD,chol",> 2 µM
same,Kd,"[11]; read-out: KD,erg",0.15 µM
same,toxicity in rats,[12],non-toxic
same,"less potent than AmB, average",[13]; average across all 40 strains,5.6 fold
same,less potent than AmB,[13]; range over 40 Aspergillus clinical isolates,2-16 times
same,toxicity to human red blood cells,[14],non-toxic
same,toxicity in mice,[15],non-toxic
same,less potent than AmB,[16],4 fold
same,less potent than AmB,[17],4 fold
same,less potent than AmB,[18],> 32 times
same,less potent than AmB,[19],4 fold
same,antifungal potency,[20],good antifungal potency
